Experimental data taken from patent US9353090B2, “Heterocyclic carboxylic acids as activators of soluble guanylate cyclase” (Boehringer Ingelheim International GmbH, priority 2014, dated 2016).
In brackets after ≈: the same amount, converted by molar mass.

Tests used:
[1] = Human liver microsome (HLM) metabolic stability assay; assay type: in vitro ADME; conditions: human liver microsomes
Method in brief: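 Remaining parent measured by LC/MS/MS (ESI, MRM) at 5, 15, 30 and 60 min relative to 0 min. Incubation: 1 uM compound, HLMs, NADPH-started, 37° C., 60 min total, single replicate. Slope of ln(% remaining) gives t1/2 = 0.693/slope, then CLint, CLh and % Qh.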

[2] = target: human soluble guanylate cyclase alpha 1 and beta 1 subunits (sGC) (Homo sapiens (Human), UniProt Q02108+Q02153); assay: sGC cellular activator assay (cGMP, HTRF), in the presence and absence of 50% human serum; assay type: cell-based; conditions: CHO cells stably expressing human sGC alpha 1/beta 1, preincubated with 40 microM ODQ; cGMP by HTRF; Table 2 does not state whether with or without 50% human serum
Method in brief: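 First, CHO-sGC (human α1β1) cells get 1 h ODQ at 40 microM with IBMX and 0.1% BSA. Finally, cGMP is quantified by HTRF and EC50 computed.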

physchem = conditions: kinetic from dmso stock
[3] = pH 2.2, aqueous buffer, Solubility (pH 2.2)
[4] = pH 4.5, aqueous buffer, Solubility (pH 4.5)
[5] = pH 6.8, aqueous buffer, Solubility (pH 6.8)

Sequence of human soluble guanylate cyclase alpha 1 and beta 1 subunits (sGC) (Q02108 whole entry partner): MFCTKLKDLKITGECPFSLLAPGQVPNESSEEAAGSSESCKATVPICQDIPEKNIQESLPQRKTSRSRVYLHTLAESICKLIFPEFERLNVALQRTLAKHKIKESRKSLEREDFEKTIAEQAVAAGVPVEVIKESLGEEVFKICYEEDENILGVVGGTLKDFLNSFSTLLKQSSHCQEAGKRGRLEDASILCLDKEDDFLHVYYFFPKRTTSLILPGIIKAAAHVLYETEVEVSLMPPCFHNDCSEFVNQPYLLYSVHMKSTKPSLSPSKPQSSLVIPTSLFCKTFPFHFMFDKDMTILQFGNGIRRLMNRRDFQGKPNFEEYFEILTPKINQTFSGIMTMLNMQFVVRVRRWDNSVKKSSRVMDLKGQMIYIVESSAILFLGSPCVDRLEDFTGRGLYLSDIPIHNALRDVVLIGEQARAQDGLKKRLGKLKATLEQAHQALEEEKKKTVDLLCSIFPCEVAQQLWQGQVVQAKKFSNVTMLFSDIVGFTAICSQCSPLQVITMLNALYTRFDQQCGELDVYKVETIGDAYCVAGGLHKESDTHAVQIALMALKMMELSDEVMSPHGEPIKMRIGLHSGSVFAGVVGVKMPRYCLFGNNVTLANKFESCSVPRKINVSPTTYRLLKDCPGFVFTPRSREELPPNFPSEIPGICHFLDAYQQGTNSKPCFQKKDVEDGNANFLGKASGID
Sequence of human soluble guanylate cyclase alpha 1 and beta 1 subunits (sGC) (Q02153 whole entry): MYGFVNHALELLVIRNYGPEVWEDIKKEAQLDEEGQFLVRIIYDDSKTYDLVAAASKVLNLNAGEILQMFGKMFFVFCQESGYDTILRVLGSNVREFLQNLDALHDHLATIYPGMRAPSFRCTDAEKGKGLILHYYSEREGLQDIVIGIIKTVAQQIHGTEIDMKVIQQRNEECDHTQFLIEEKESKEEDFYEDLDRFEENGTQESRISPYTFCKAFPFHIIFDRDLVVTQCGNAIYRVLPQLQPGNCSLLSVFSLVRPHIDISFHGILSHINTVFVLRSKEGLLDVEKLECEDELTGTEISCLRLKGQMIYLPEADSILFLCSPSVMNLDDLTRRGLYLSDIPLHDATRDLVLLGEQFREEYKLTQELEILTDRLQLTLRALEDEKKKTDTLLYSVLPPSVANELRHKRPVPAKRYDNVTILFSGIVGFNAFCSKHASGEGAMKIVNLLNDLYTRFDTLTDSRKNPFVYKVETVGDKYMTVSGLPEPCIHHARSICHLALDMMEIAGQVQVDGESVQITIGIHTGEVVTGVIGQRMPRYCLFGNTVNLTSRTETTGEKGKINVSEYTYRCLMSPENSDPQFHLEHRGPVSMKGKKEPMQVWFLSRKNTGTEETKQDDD

Structure (SMILES)	Metabolic stability (Qh %), % hepatic blood flow [1]	EC50 [2]	solubility at 24 h (physchem; [3])	solubility at 24 h (physchem; [4])	solubility at 24 h (physchem; [5])
CO[C@H]1CN(c2nc(-c3cc(C)ccc3OCc3ccc4c(c3C)CCN(C3CCOCC3)CC4)cs2)CC[C@H]1C(=O)O [Compound 182]	<24%	26 nM	120 µg/mL (≈ 198 µM)	61 µg/mL (≈ 101 µM)	55 µg/mL (≈ 90.8 µM)
Cc1c(COc2ccccc2-c2ccnc(N3CC[C@@]4(C(=O)O)C[C@H]4C3)n2)ccc2c1CCN(C1CCOCC1)C2 [Compound 185]	33%	21 nM	100 µg/mL (≈ 180 µM)	43 µg/mL (≈ 77.5 µM)	42 µg/mL (≈ 75.7 µM)
Cc1c(COc2ccccc2-c2ccnc(N3C[C@@H]4C[C@]4(C(=O)O)C3)n2)ccc2c1CCN(C1CCOCC1)C2 [Compound 188]	<24%	150 nM	110 µg/mL (≈ 203 µM)	50 µg/mL (≈ 92.5 µM)	54 µg/mL (≈ 99.9 µM)
Cc1cccc(-c2ccnc(N3C[C@@H]4C[C@]4(C(=O)O)C3)n2)c1OCc1ccc2c(c1C)CCN(C1CCOCC1)C2 [Compound 189]	<24%	43 nM	110 µg/mL (≈ 198 µM)	66 µg/mL (≈ 119 µM)	66 µg/mL (≈ 119 µM)
Cc1cc(COc2c(C)cccc2-c2ccnc(N3C[C@@H]4C[C@]4(C(=O)O)C3)n2)cc2c1CN(C1CCOCC1)CC2 [Compound 190]	<24%	17 nM	99 µg/mL (≈ 178 µM)	71 µg/mL (≈ 128 µM)	74 µg/mL (≈ 133 µM)
Cc1ccc(OCc2ccc3c(c2)CCN(C2CCOCC2)C3=O)c(-c2csc(N3CC[C@@]4(C(=O)O)C[C@H]4C3)n2)c1 [Compound 192, (1R,6S)-3-(4-{5-Methyl-2-[1-oxo-2-(tetrahydro-pyran-4-yl)-1,2,3,4-tetrahydro-isoquinolin-6-ylmethoxy]-phenyl}-thiazol-2-yl)-3-aza-bicyclo[4.1.0]heptane-6-carboxylic acid]	<24%	29 nM	48 µg/mL (≈ 83.7 µM)	< 0.1 µg/mL	9.2 µg/mL (≈ 16 µM)
Cc1ccc(OCc2cnc3c(c2)CCN(C2CCOCC2)C3)c(-c2csc(N3CC[C@@]4(C(=O)O)C[C@H]4C3)n2)c1 [Compound 194]	<24%	63 nM	140 µg/mL (≈ 250 µM)	70 µg/mL (≈ 125 µM)	57 µg/mL (≈ 102 µM)
CO[C@@H]1CN(c2cccc(-c3cccc(C)c3OCc3ccc4c(c3C)CCN(C3COC3)CC4)n2)CC[C@@H]1C(=O)O [Compound 196]	24%	3 nM	117 µg/mL (≈ 205 µM)	114 µg/mL (≈ 199 µM)	107 µg/mL (≈ 187 µM)
CO[C@H]1CN(c2cccc(-c3cccc(C)c3OCc3ccc4c(c3C)CCN(C3CCOCC3)CC4)n2)CC[C@H]1C(=O)O [Compound 197]	47%	9 nM	110 µg/mL (≈ 183 µM)	73 µg/mL (≈ 122 µM)	53 µg/mL (≈ 88.4 µM)
Cc1ccc(OCc2ccc3c(c2)CCCN(C2CCOCC2)C3)c(-c2csc(N3CC[C@@]4(C(=O)O)C[C@H]4C3)n2)c1 [Compound 199]	46%	145 nM	134 µg/mL (≈ 234 µM)	51.6 µg/mL (≈ 89.9 µM)	23.8 µg/mL (≈ 41.5 µM)
COc1ccc(OCc2ccc3c(c2C)CCN(C2CCOCC2)C3)c(-c2csc(N3CC[C@@]4(C(=O)O)C[C@H]4C3)n2)c1 [Compound 200]	<24%	25 nM	130 µg/mL (≈ 221 µM)	43.6 µg/mL (≈ 73.9 µM)	10.5 µg/mL (≈ 17.8 µM)
COc1ccc(OCc2ccc3c(c2C)CCN(C2COC2)C3)c(-c2csc(N3CC[C@@]4(C(=O)O)C[C@H]4C3)n2)c1 [Compound 201]	<24%	40 nM	132 µg/mL (≈ 235 µM)	10.1 µg/mL (≈ 18 µM)	19.5 µg/mL (≈ 34.7 µM)
Cc1ccc(OCc2ccc3c(c2C)CCN(C2CCOCC2)C3=O)c(-c2cccc(N3CC[C@@]4(C(=O)O)C[C@H]4C3)n2)c1 [Compound 202]	62%	9 nM	84 µg/mL (≈ 144 µM)	10 µg/mL (≈ 17.2 µM)	0.1 µg/mL (≈ 0.172 µM)
CO[C@H]1CN(c2nc(-c3cc(C)ccc3OCc3ccc4c(c3C)CCN(C3CCOCC3)C4=O)cs2)CC[C@H]1C(=O)O [Compound 203]	<24%	33 nM	56.8 µg/mL (≈ 93.8 µM)	0.1 µg/mL (≈ 0.165 µM)	1.6 µg/mL (≈ 2.64 µM)
CO[C@H]1CN(c2cccc(-c3cc(C)ccc3OCc3ccc4c(c3C)CCN(C3CCOCC3)C4=O)n2)CC[C@H]1C(=O)O [Compound 205]	<24%	52 nM	109 µg/mL (≈ 182 µM)	42.6 µg/mL (≈ 71 µM)	10.8 µg/mL (≈ 18 µM)
CO[C@H]1CN(c2nc(-c3cccc(Cl)c3OCc3ccc4c(c3C)CCN(C3CCOCC3)C4)cs2)CC[C@H]1C(=O)O [Compound 207]	<24%	8 nM	143 µg/mL (≈ 234 µM)	88.6 µg/mL (≈ 145 µM)	76.8 µg/mL (≈ 125 µM)
CO[C@@H]1CN(c2nc(-c3cccc(Cl)c3OCc3ccc4c(c3C)CCN(C3CCOCC3)C4)cs2)CC[C@@H]1C(=O)O [Compound 208]	<24%	16 nM	139 µg/mL (≈ 228 µM)	88.9 µg/mL (≈ 145 µM)	77.1 µg/mL (≈ 126 µM)
COc1cc(COc2c(C)cccc2-c2csc(N3CC[C@@H](C(=O)O)[C@@H](OC)C3)n2)cc2c1CN(C1COC1)CC2 [Compound 209]	<24%	14 nM	128 µg/mL (≈ 220 µM)	83.9 µg/mL (≈ 145 µM)	88.7 µg/mL (≈ 153 µM)
COc1cc(COc2c(C)cccc2-c2csc(N3CC[C@@H](C(=O)O)[C@@H](OC)C3)n2)cc2c1CN([C@@H]1CCOC1)CC2 [Compound 210]	<24%	16 nM	136 µg/mL (≈ 230 µM)	88.2 µg/mL (≈ 149 µM)	75 µg/mL (≈ 126 µM)
COc1cc(COc2c(C)cccc2-c2csc(N3CC[C@@H](C(=O)O)[C@@H](OC)C3)n2)cc2c1CN([C@H]1CCOC1)CC2 [Compound 211]	<24%	18 nM	133 µg/mL (≈ 224 µM)	83.4 µg/mL (≈ 140 µM)	76.5 µg/mL (≈ 129 µM)
COC[C@H]1N(c2cccc(-c3cccc(F)c3OCc3ccc4c(c3C)CCN(C3CCOCC3)CC4)n2)C[C@@H]2C[C@@]21C(=O)O [Compound 212]	<24%	34 nM	136 µg/mL (≈ 221 µM)	96.6 µg/mL (≈ 157 µM)	72.7 µg/mL (≈ 118 µM)
COC[C@H]1N(c2cccc(-c3cccc(F)c3OCc3cc(C)c4c(c3)CCN(C3CCOCC3)C4)n2)C[C@@H]2C[C@@]21C(=O)O [Compound 213]	<24%	134 nM	144 µg/mL (≈ 239 µM)	109 µg/mL (≈ 181 µM)	81.3 µg/mL (≈ 135 µM)
Cc1cccc(-c2cccc(N3CC4OCC3C4C(=O)O)n2)c1OCc1ccc2c(c1C)CCN(C1CCOCC1)C2 (stereo not shown) [Compound 214]	<24%	243 nM	118 µg/mL (≈ 207 µM)	108 µg/mL (≈ 189 µM)	87.9 µg/mL (≈ 154 µM)
